According to US20230346769A1, “USE OF SIMPLE ACYCLIC POLYAMINES FOR THE TREATMENT OF DISEASES CAUSED BY PARASITES OF THE GENUS LEISHMANIA” (Universidad De Granada, priority 2020, published 2023):
Entries after “also recorded” stand apart in the source; their conditions may differ.

Key:
J774.2 macrophages = assay: Macrophage toxicity by flow cytometry; assay type: cell-based; conditions: for IC50: J774.2 macrophages, 72 h of culture
Method: Macrophage toxicity: this study used the experimental model designed by the group of inventors [I. Ramírez-Macías. et. al. J. Antimicrob. Chemother. 2011, 66(4): 813-819] wherein flow cytometry is used. Briefly, macrophages from line J774.2 (ECACC number 91051511, obtained from a BALB/c female […] tumour in 1968) were deposited in a steriling tube and centrifuged at 120 g for 5 minutes. The supernatant was discarded and the cells were resuspended in MEM + Glutamine medium with 20% SBF (fetal bovine serum). 1×10^4 cells per well were then deposited from a 24-well titration plate and incubated for 24-48 h at 37° C. in a humid atmosphere enriched with 5% CO2 to fix them. […] After 72 h of incubation, the samples were prepared for reading on a flow cytometer. Specifically, 100 µl of propidium iodide solution (100 µg/ml) was added to each well and incubated for 10 min at 28° C. in the dark. Subsequently, 100 µl/well of fluorescein diacetate (FDA) (Sigma Chemical Co) in solution (100 ng/mL) was added and incubation was repeated under the same conditions for 10 minutes. Cells were recovered by centrifugation at 400 g for 10 minutes and washing the precipitate with PBS. Finally, the results were analysed in a FACS Vantage flow cytometer (Becton Dickinson) taking into account that the cells with the plasma membrane intact emit green colour as the esterases act on the FDA, while the cells that have lost the integrity of the membrane and are not viable, emit in the range close to 580 nm by penetrating the propidium iodide by passive diffusion and specifically binding to the nucleic acids thereof. Thus, to calculate the percentage of viability, the number of dead cells compared to controls was taken into account.

[1] = tested on: intracellular forms of L.infantum in J774.2 macrophages; assay: Infection rate and parasite growth in infected macrophage cultures; assay type: cell-based, Leishmania infantum; conditions: compound at IC25, 10 days
Method: (§1) Methodology: Macrophages of the J774.2 line preserved in the laboratory of the present inventors by cryopreservation at -80° C. and successive runs in MEM+Glutamine + 20% SBFI medium were used, which were deposited in a […] tube and centrifuged at 100 g for 5 minutes. The supernatant was discarded and the cells were resuspended in medium corresponding to a final concentration of 1×10^6 cells/ml. Subsequently, 10 μl of the cell suspension was deposited into each well of a 24-well culture plate each with a 10 mm diameter round slide. A final volume of 500 μl was completed with the culture medium and incubated for 24 h at 37° C. in humid atmosphere with 5% CO2. […] The non-phagocytic parasites and products were removed by washing and the infected cultures were maintained for 10 days in fresh medium added every 48 hours. The activity of the compounds was determined by the percentage of infected cells and the number of amastigotes per infected cell. Finally, the cultures were fixed and stained with methanol and Giemsa.

[2] = tested on: intracellular forms of L.braziliensis in J774.2 macrophages; assay: as above; assay type: cell-based, Leishmania braziliensis; conditions: compound at IC25, 10 days
Method: as §1

[3] = tested on: intracellular forms of L.donovani in J774.2 macrophages; assay: as above; assay type: cell-based, Leishmania donovani; conditions: compound at IC25, 10 days
Method: as §1

[4] = tested on: FeSOD of promastigote forms of L.infantum; assay: In vitro inhibition of FeSOD (NBT reduction); assay type: biochemical, Leishmania infantum
Method: (§2) Methodology: Compounds that were selected from the leishmanicidal activity shown in previous experiments were evaluated as inhibitors of FeSOD enzyme activity, which is unique to the kinetoplastid parasites to which Leishmania belongs. Being exclusive, it is absent in the vertebrate host, since these usually have an analogous form of that enzyme, but complexed to a copper or zinc atom (Cu/ZnSOD). For this reason, this enzyme is a therapeutic target for the design of new drugs, since the capture of the metal ion by complexing mechanisms can inactivate the enzyme and compromise the survival of the parasite with the appearance of free radicals.
Inhibition caused by the novel compounds on FeSOD/ Cu-Zn SOD activity was quantified on the spectrophotometer at 560 nm according to the technique described by [W F. Beyer. I. Fridovich. Anal Biochem. 1987. 161: 559-66] based on the determination of the reduction of NBT (nitro blue tetrazolium) by superoxide ions and which the group of the present inventors has developed for the assay in trypanosomatides, being a routine technique in the laboratory of said group [F. Luque. et. al. Comp. Biochem. Physiol. C Toxicol. Pharmacol. 2000. 126: 39-44; M. Sanchez-Moreno. Med. Chem. 2011. 54. 970-9; I. Ramírez-Macías. et. al. J. Antimicrob. Chemother 2011. 66(4): […]].
Briefly, the cultured parasites as described in Example 1 underwent centrifugation, the pellet was resuspended (0.5 - 0.6 g/ml) in 3 ml of STE buffer ([…]. pH 7.8) and underwent 3 cycles of sonication from 30 s at 60 V. Then, it was centrifuged at 1500 g for 10 min at 4° C. and the pellet was washed 3 times with ice-cooled STE buffer. This fraction was centrifuged (2500 g for 10 min at 4° C.) and the supernatant was subsequently collected. Protein concentrations were determined by means of the Bradford method (Sigma-Aldrich) using bovine serum albumin as standard. […] A first measurement of the absorbance at 560 nm was made on a spectrophotometer and, after 10 minutes under light and under stirring conditions, the absorbance was re-determined. […]

[5] = tested on: FeSOD of the promastigote forms of L.braziliensis; assay: In vitro inhibition of FeSOD (NBT reduction); assay type: biochemical, Leishmania braziliensis
Method: as §2
Inhibition caused by the novel compounds on FeSOD/ Cu-Zn SOD activity was quantified on the spectrophotometer at 560 nm according to the technique described by [W F. Beyer. I. Fridovich. Anal Biochem. 1987. […]
Briefly, the cultured parasites as described in Example 1 underwent centrifugation, the pellet was resuspended (0.5 - 0.6 g/ml) in 3 ml of STE buffer (0.25 M. Tris-HCI 25 mM sucrose. 1 M EDTA. pH 7.8) and underwent 3 cycles of sonication from 30 s at 60 V. Then, it was centrifuged at 1500 g for 10 min at 4° C. and the pellet was washed 3 times with ice-cooled STE buffer. […] Protein concentrations were determined by means of the Bradford method (Sigma-Aldrich) using bovine serum albumin as standard. […]

[6] = tested on: L.braziliensis promastigotes; assay: Alteration of production and excretion of metabolites (1H NMR); assay type: cell-based, Leishmania braziliensis; conditions: compound at IC25, 72 h; for Succinate production: versus control
Method: Methodology: Promastigotes from the three species studied were used for this study. They were left to grow in a culture flask and subsequently transferred to a 25 ml capacity conical bottom flask (steriling) so that there were 5×10^4 parasites/ml in each one. The amount of compound needed to reach IC25 of each product was added and completed with fresh culture medium to reach a final volume of 3 ml and incubated at 28° C. for 72 h. After that time, the flasks were centrifuged at 400 g for 10 minutes, and 2 ml of supernatant was transferred to Eppendorf® tubes. Next, they were analysed using proton nuclear resonance and the spectra were analysed with the Mestre Nova® software to obtain the metabolite production and excretion graphs. From these graphs, it can be inferred which enzyme has seen its activity altered by action of the compounds, depending on the increase or decrease of the metabolite produced by it.
Both the decrease and increase in the metabolites analysed can be positive effects, indicating a malfunctioning of the metabolic pathway.

`CNCCNCc1ccc2ccccc2n1` [Compound 9, 1-{2-quinolyl)-2,5-diazahexane] was tested, and the IC50 (J774.2 macrophages) was 354 ± 31.7 µM.
Compound `CNCCNCc1ccnc2ccccc12` [Compound 10] has an IC50 (J774.2 macrophages) of 164 ± 10 µM.
`CN(C)CCNCc1ccccn1` [Compound 4, 1-(2-pyridyl)-5-methyl-2,5-diazahexane] was tested, and the IC50 (J774.2 macrophages) was 1240 ± 42.7 µM, the “Number of amastigotes per infected cell” value [1] was “better (lower) than those obtained with compound 5” and the “Percentage of infection (infection rate)” value [1] was “lower infection rate on day 10”. The “Number of amastigotes per infected cell” value [2] was “effective by decreasing”, the “Percentage of infection (infection rate)” value [2] was “effective by decreasing” and the “Number of amastigotes per infected cell” value [3] was “effective by decreasing”. For the same compound, the “Percentage of infection (infection rate)” value [3] was “effective by decreasing”, the “Concentration for 50% inhibition (IC50) of FeSOD of L.infantum” value [4] was “less than that necessary to achieve the same percentage of inhibition of the CuZnSOD enzyme of human erythrocytes; also recorded: showed ability to inhibit FeSOD” and the “Concentration for 50% inhibition (IC50) of FeSOD of L.braziliensis” value [5] was “lower than that necessary for the enzyme of human erythrocytes; also recorded: showed ability to inhibit FeSOD”. For the same compound, the “Production and excretion of metabolites (metabolism, other metabolites analysed)” value [6] was “decrease of the remaining metabolites analysed” and the Succinate production [6] was “increase in succinate production”.
With `CNCCNCc1ccccn1` [Compound 1, 1-{2-pyridyl}-2,5-diazahexane] the IC50 (J774.2 macrophages) was 13.7 ± 3.1 µM.
`CN(C)CCNCc1cccnc1` [Compound 5, 1-{3-pyridyl}-5-methyl-2,5-diazahexane] was tested, and the “Toxicity in macrophages (IC50) compared with the reference compound” value (J774.2 macrophages) was “much lower”, the IC50 (J774.2 macrophages) was 230 ± 16.9 µM and the “Percentage of infection (infection rate)” value [1] was “lower infection rates than compound 4 until 8 days had elapsed”. For the same compound, the “Concentration for 50% inhibition (IC50) of FeSOD of L.infantum” value [4] was “less than that necessary to achieve the same percentage of inhibition of the CuZnSOD enzyme of human erythrocytes; also recorded: showed ability to inhibit FeSOD”.
`CN(C)CCNCc1ccnc2ccccc12` [Compound 8, 1-{4-quinolyl)-5-methyl-2,5-diazahexane] gave an IC50 (J774.2 macrophages) of 22.5 ± 0.6 µM.
For `CNCCNCc1ccncc1` [Compound 3, 1-{4-pyridyl)-2,5-diazahexane], the IC50 (J774.2 macrophages) was 223 ± 17.3 µM.
`CN(C)CCNCc1ccc2ccccc2n1` [Compound 7] was tested, and the IC50 (J774.2 macrophages) was 442 ± 31.6 µM.
In the case of `CNCCNCc1cccnc1` [Compound 2, 1-{3-pyridyl)-2,5-diazahexane], the “Toxicity in macrophages (IC50) compared with the reference compound” value (J774.2 macrophages) is reported as “low toxicities”, the IC50 (J774.2 macrophages) is reported as 310 ± 11.5 µM and the “Number of amastigotes per infected cell” value [1] is reported as “lowest values over time”. The “Percentage of infection (infection rate)” value [1] was “lowest values over time”, the “Number of amastigotes per infected cell” value [2] was “lowest values over time; also recorded: effective by decreasing” and the “Percentage of infection (infection rate)” value [2] was “lowest values over time; also recorded: effective by decreasing”. For the same compound, the “Number of amastigotes per infected cell” value [3] was “lowest values over time; also recorded: effective by decreasing”, the “Percentage of infection (infection rate)” value [3] was “lowest values over time; also recorded: effective by decreasing” and the “Concentration for 50% inhibition (IC50) of FeSOD of L.infantum” value [4] was “less than that necessary to achieve the same percentage of inhibition of the CuZnSOD enzyme of human erythrocytes; also recorded: showed ability to inhibit FeSOD; also recorded: low IC50 value”. For the same compound, the “Concentration for 50% inhibition (IC50) of FeSOD of L.braziliensis” value [5] was “showed ability to inhibit FeSOD”, the “Production and excretion of metabolites (metabolism, other metabolites analysed)” value [6] was “practically does not alter the other metabolites analysed” and the Succinate production [6] was “a certain increase of succinate”.
`CN(C)CCNCc1ccncc1` [Compound 6] showed an IC50 (J774.2 macrophages) of 497 ± 21.5 µM.
